Test results published in patent US6410482B1, “(Het) arylsulfonylureas having an amino function, their presentation and their use as herbicides and plant growth regulators” (Hoechst Schering AgrEvo GmbH, priority 1996, dated 2002).

What was measured:
[1] = tested on: Sinapis alba, Stellaria media, Chrysanthemum segetum, and Lolium multiflorum; test: Post-emergence effect on weeds (greenhouse pot test, visual scoring); assay type: in vivo; conditions: applied post-emergence (three-leaf stage) at 0.3 kg to 0.005 kg of active ingredient per hectare; scored visually after about 3 to 4 weeks vs untreated controls
Experimental: Seeds or rhizome pieces of monocotyledonous and dicotyledonous weeds are placed in sandy loam soil in plastic pots, covered with soil and grown in a greenhouse under good growth conditions. Three weeks after sowing, the test plants are treated in the three-leaf stage. The compounds of the formula (I) or salts thereof according to the invention which have been formulated as wettable powders or as emulsion concentrates are sprayed in various dosages onto the green parts of the plants at an application rate of 600 to 800 l of water/ha (converted). After the test plants have remained in the greenhouse for about 3 to 4 weeks under ideal growth conditions, the effect of the preparations is scored visually by comparison with untreated controls. The agents according to the invention also have a good herbicidal post-emergence activity against a broad range of economically important grass weeds and broad-leaved weeds.

[2] = tested on: Sinapis alba, Stellaria media, Chrysanthemum segetum, and Lolium multiflorum; test: Pre-emergence effect on weeds (greenhouse pot test, visual scoring); assay type: in vivo; conditions: applied pre-emergence at 0.3 kg to 0.005 kg of active ingredient per hectare; scored visually after 3 to 4 weeks vs untreated controls
Text: Seeds or rhizome pieces of monocotyledonous and dicotyledonous weed plants are placed in sandy loam soil in plastic pots and covered with soil. The compounds of the formula (I) or salts thereof according to the invention which have been formulated in the form of wettable powders or emulsion concentrates are then applied to the surface of the soil cover in the form of aqueous suspensions or emulsions at an application rate of […] of water/ha (converted), in various dosages.
After the treatment, the pots are placed in a greenhouse and kept under good growth conditions for the weeds. After the test plants have emerged after a period of 3 to 4 weeks, the damage to the plants or the negative effect on the emergence is scored visually by comparison with untreated controls. As shown by the test results, the compounds according to the invention have a good herbicidal pre-emergence activity against a broad spectrum of grass weeds and broad-leaved weeds.

| Compound | herbicidal activity, post-emergence [1] | herbicidal activity, pre-emergence [2] | melting point |
| --- | --- | --- | --- |
| COc1cc(OC)nc(NC(=O)NS(=O)(=O)c2ncccc2N=CN(C)C)n1 [Example 4-2] | very good herbicidal activity |  |  |
| COc1cc(OC)nc(NC(=O)NS(=O)(=O)c2cc(N=CN(C)C)ccc2S(C)(=O)=O)n1 [Example 2-21] | very good herbicidal activity | very good herbicidal activity |  |
| COc1cc(OC)nc(NC(=O)NS(=O)(=O)c2c(N=CN(C)C)c(C)nn2C)n1 [Example 10-1] | very good herbicidal activity | very good herbicidal activity |  |
| COC(=O)c1ccc(N=CN(C)C)cc1S(=O)(=O)NC(=O)Nc1nc(Cl)cc(OC)n1 [Example 2-39] | very good herbicidal activity | very good herbicidal activity |  |
| CCC(=Nc1ccc(C(=O)OC)c(S(=O)(=O)NC(=O)Nc2nc(OC)cc(OC)n2)c1)N(C)C [Example 2-24] | very good herbicidal activity | very good herbicidal activity |  |
| COC(=O)c1ccc(N=CN2CCCCC2)cc1S(=O)(=O)NC(=O)Nc1nc(OC)cc(OC)n1 [Example 2-37] | very good herbicidal activity | very good herbicidal activity |  |
| COc1cc(OC)nc(NC(=O)NS(=O)(=O)c2cc(N=CN(C)C)ccc2C(=O)N(C)C)n1 [Example 2-15, N,N-dimethyl-2-[[[[(4,6-dimethoxypyrimidin-2-yl)-amino]carbonyl]amino]sulfonyl]-4-(2-dimethylamino-1-azaethenyl)-benzamide] | very good herbicidal activity | very good herbicidal activity | 140 to 141 °C (dec.) |
| CCN(C=Nc1ccccc1S(=O)(=O)NC(=O)Nc1nc(OC)cc(OC)n1)CC [Example 1-5] | very good herbicidal activity | very good herbicidal activity |  |
| COc1cc(OC)nc(NC(=O)NS(=O)(=O)c2cccc(N=CN(C)C)c2)n1 [Example 2-47] | very good herbicidal activity | very good herbicidal activity |  |
| COc1cc(OC)nc(NC(=O)NS(=O)(=O)c2ccccc2N=CN(C)C)n1 [Example 1-1, N-[(4,6-dimethoxypyrimidin-2-yl)aminocarbonyl]-2-(2-dimethylamino-1-azaethenyl)benzenesulfonamide] | very good herbicidal activity | very good herbicidal activity | 209 to 210 °C (dec.) |
| COC(=O)c1ccc(N=CN(C)C)cc1S(=O)(=O)NC(=O)Nc1nc(C)nc(OC)n1 [Example 2-41] | very good herbicidal activity | very good herbicidal activity |  |
| COc1cc(OC)nc(NC(=O)[N-]S(=O)(=O)c2sccc2N=C(C(C)C)N(C)C)n1.[Na+] [Example 9-4] | very good herbicidal activity | very good herbicidal activity |  |
| COc1cc(OC)nc(NC(=O)NS(=O)(=O)c2sccc2N=C(C(C)C)N(C)C)n1 [Example 9-3] | very good herbicidal activity | very good herbicidal activity |  |
| COC(=O)c1ccc(N=CN2CCCC2)cc1S(=O)(=O)NC(=O)Nc1nc(OC)cc(OC)n1 [Example 2-36] | very good herbicidal activity | very good herbicidal activity |  |
| COC(=O)c1ccc(N=C(C(C)C)N(C)C)cc1S(=O)(=O)NC(=O)Nc1nc(OC)cc(OC)n1 [Example 2-26] | very good herbicidal activity | very good herbicidal activity |  |
| COc1cc(OC)nc(NC(=O)NS(=O)(=O)c2ncccc2N=C(C)N(C)C)n1 [Example 4-18] | very good herbicidal activity | very good herbicidal activity |  |
| CCC(=Nc1cccnc1S(=O)(=O)NC(=O)Nc1nc(OC)cc(OC)n1)N(C)C [Example 4-19] | very good herbicidal activity | very good herbicidal activity |  |
| COc1cc(OC)nc(NC(=O)NS(=O)(=O)c2sccc2N=CN(C)C)n1 [Example 9-5] | very good herbicidal activity | very good herbicidal activity |  |
| COc1cc(OC)nc(NC(=O)NS(=O)(=O)c2ncccc2N=C(C(C)C)N(C)C)n1 [Example 4-17] | very good herbicidal activity | very good herbicidal activity |  |
| CCN(C=Nc1ccc(S(=O)(=O)CC)c(S(=O)(=O)NC(=O)Nc2nc(OC)cc(OC)n2)c1)CC [Example 2-50] | very good herbicidal activity | very good herbicidal activity |  |
| COc1cc(OC)nc(NC(=O)[N-]S(=O)(=O)c2ccccc2N=CN(C)C)n1.[Na+] [Example 1-14] | very good herbicidal activity | very good herbicidal activity |  |
| COc1cc(OC)nc(NC(=O)[N-]S(=O)(=O)c2sccc2N=CN(C)C)n1.[Na+] [Example 9-6] | very good herbicidal activity | very good herbicidal activity |  |
| COc1cc(OC)nc(NC(=O)[N-]S(=O)(=O)c2sccc2N=C(C)N(C)C)n1.[Na+] [Example 9-2] | very good herbicidal activity | very good herbicidal activity |  |
| CCN(C=Nc1ccc(C(=O)OC)c(S(=O)(=O)[N-]C(=O)Nc2nc(OC)cc(OC)n2)c1)CC.[Na+] [Example 2-49] | very good herbicidal activity | very good herbicidal activity |  |
| CCN(C=Nc1ccc(C(=O)OC)c(S(=O)(=O)NC(=O)Nc2nc(OC)cc(OC)n2)c1)CC [Example 2-48] | very good herbicidal activity | very good herbicidal activity |  |
| CCS(=O)(=O)c1ccc(N=CN(C)C)cc1S(=O)(=O)NC(=O)Nc1nc(OC)cc(OC)n1 [Example 2-22] | very good herbicidal activity | very good herbicidal activity |  |
| COc1cc(OC)nc(NC(=O)[N-]S(=O)(=O)c2c(N=CN(C)C)c(C)nn2C)n1.[Na+] [Example 10-2] | very good herbicidal activity | very good herbicidal activity |  |
| COc1cc(OC)nc(NC(=O)NS(=O)(=O)c2sccc2N=C(C)N(C)C)n1 [Example 9-1] | very good herbicidal activity | very good herbicidal activity |  |
| COC(=O)c1ccc(N=CN(C)C)cc1S(=O)(=O)NC(=O)Nc1nc(OC)cc(OC)n1 [Example 2-10, methyl 2-[[[[(4,6-dimethoxypyrimidin-2-yl)amino]carbonyl]amino]sulfonyl]-4-(2-dimethylamino-1-azaethenyl)-benzoate] | very good herbicidal activity | very good herbicidal activity | 73 to 75 °C |
